Assay results taken from paper PMC2713172 (Biochemistry, 2008).

Legend:
CYP2C9 F476L mutant = CYP2C9 F476L mutant (Homo sapiens, UniProt P11712, F476L); test: biochemical
CYP2C9 F114W mutant = CYP2C9 F114W mutant (Homo sapiens, UniProt P11712, F114W); test: in vitro; conditions: pH 7.4
[1] = target: CYP2C9 F114W/F476W double mutant (Homo sapiens, UniProt P11712, F114W/F476W); test: in vitro; conditions: pH 7.4
CYP2C9 F476W mutant = CYP2C9 F476W mutant (Homo sapiens, UniProt P11712, F476W); test: 1H-NMR T1 relaxation, distances of ligand protons from the heme iron
CYP2C9 F100L mutant = CYP2C9 F100L mutant (Homo sapiens, UniProt P11712, F100L); test: in vitro; conditions: pH 7.4
CYP2C9 F114L mutant = CYP2C9 F114L mutant (Homo sapiens, UniProt P11712, F114L); conditions: F114L

C[C@H](C(=O)O)c1ccc(-c2ccccc2)c(F)c1 [(S)-flurbiprofen]
Kd (CYP2C9 F476L mutant): 9.1 ± 1 µM
Km at 20 min (CYP2C9 F114W mutant): 19.5 ± 3.2 µM
Km at 20 min [1]: 237 ± 11.8 µM
T1, 2C9 (CYP2C9 F476W mutant; proton H2): 2.56 (0.15) seconds
r, distance of proton from the heme iron (CYP2C9 F476W mutant; proton H2): 6.58 (0.28) angstroms
T1, 2C9 + CO (CYP2C9 F476W mutant; proton H2, dithionite/CO): 2.34 (0.14) seconds
T1, 2C9 (CYP2C9 F476W mutant; proton H4′): 2.88 (0.14) seconds
r, distance of proton from the heme iron (CYP2C9 F476W mutant; proton H4′): 6.40 (0.32) angstroms
T1, 2C9 + CO (CYP2C9 F476W mutant; proton H4′, dithionite/CO): 2.55 (0.16) seconds
T1, 2C9 (CYP2C9 F476W mutant; proton H5): 2.11 (0.10) seconds
r, distance of proton from the heme iron (CYP2C9 F476W mutant; proton H5): 6.47 (0.24) angstroms
T1, 2C9 + CO (CYP2C9 F476W mutant; proton H5, dithionite/CO): 2.24 (0.18) seconds
T1, 2C9 (CYP2C9 F476W mutant; proton H6): 1.78 (0.08) seconds
r, distance of proton from the heme iron (CYP2C9 F476W mutant; proton H6): 6.79 (0.22) angstroms
T1, 2C9 + CO (CYP2C9 F476W mutant; proton H6, dithionite/CO): 1.85 (0.08) seconds
T1, 2C9 (CYP2C9 F476W mutant; protons CH3): 0.67 (0.01) seconds
r, distance of proton from the heme iron (CYP2C9 F476W mutant; protons CH3): 5.62 (0.25) angstroms
T1, 2C9 + CO (CYP2C9 F476W mutant; protons CH3, dithionite/CO): 0.65 (0.03) seconds
T1, 2C9 (CYP2C9 F476W mutant; protons H2′/6′): 2.38 (0.06) seconds
r, distance of proton from the heme iron (CYP2C9 F476W mutant; protons H2′/6′): 7.15 (0.13) angstroms
T1, 2C9 + CO (CYP2C9 F476W mutant; protons H2′/6′, dithionite/CO): 2.54 (0.07) seconds
T1, 2C9 (CYP2C9 F476W mutant; protons H3′/5′): 2.39 (0.08) seconds
r, distance of proton from the heme iron (CYP2C9 F476W mutant; protons H3′/5′): 6.49 (0.20) angstroms
T1, 2C9 + CO (CYP2C9 F476W mutant; protons H3′/5′, dithionite/CO): 2.39 (0.16) seconds
Km at 20 min (CYP2C9 F100L mutant): 34.8 ± 7 µM
percent of wild-type ΔA/K (CYP2C9 F114L mutant): 46%
ΔA/K (CYP2C9 F114L mutant): 2.4 μM^−1 × 10^−3
ΔAmax (maximum observed difference 390–420 nm) (CYP2C9 F114L mutant): 10 ± 0.4 ×10^−3
